Tests used:
[1] = system: ISC-enriched organoids; experiment: Primary screen, 384-well 2.5-D organoid differentiation (ENR+CD, 6 days): carbachol-induced lysozyme secretion (LYZ.S); assay type: cell-based, murine; details: for Dose.FC.LYZ.S (log 2 fold change, carbachol-induced lysozyme secretion): vs plate median; for Dose.FC.LYZ.S: FC vs plate median
Source text: (§1) High-throughput screening.

[2] = system: ISC-enriched organoids; experiment: Primary screen, 384-well 2.5-D organoid differentiation (ENR+CD, 6 days): basal lysozyme secretion (LYZ.NS); assay type: cell-based, murine; details: for Dose.FC.LYZ.NS (log 2 fold change, basal lysozyme secretion): vs plate median; for Dose.FC.LYZ.NS: FC vs plate median; for Z.LYZ.NS: standard z score of FC
Source text: as §1

[3] = system: ISC-enriched organoids; experiment: Primary screen, 384-well 2.5-D organoid differentiation (ENR+CD, 6 days, Target Selective Inhibitor Library, vs whole-plate median): ATP (CellTiter-Glo 3D, CTG); details: for Dose.FC.CTG (log 2 fold change, ATP): vs plate median; for Dose.FC.CTG: FC vs plate median; for Z.CTG: standard z score of FC
[4] = primary screen, dose 0.08 uM, ENR+CD 6 days
[5] = primary screen, dose 0.40 uM, ENR+CD 6 days
[6] = primary screen, dose 2.00 uM, ENR+CD 6 days
[7] = primary screen, dose 10.00 uM, ENR+CD 6 days

## Cc1cc(C)nc(NS(=O)(=O)c2ccc(NC(=S)NC(=O)COc3ccc(Br)cc3Cl)cc2)n1 [ZCL278]
[1]; dose 0.08 uM
  Dose.FC.LYZ.S (log 2 fold change, carbachol-induced lysozyme secretion): −0.107
[1]; dose 0.40 uM
  Dose.FC.LYZ.S (log 2 fold change, carbachol-induced lysozyme secretion): 0.077
[1]; dose 2.00 uM
  Dose.FC.LYZ.S (log 2 fold change, carbachol-induced lysozyme secretion): −0.079
[1]; dose 10.00 uM
  Dose.FC.LYZ.S (log 2 fold change, carbachol-induced lysozyme secretion): −0.080
[2]; dose 0.08 uM
  Z.LYZ.NS (standard z score): −0.729
  Dose.FC.LYZ.NS (log 2 fold change, basal lysozyme secretion): −0.084
[2]; dose 0.40 uM
  Z.LYZ.NS (standard z score): −0.325
  Dose.FC.LYZ.NS (log 2 fold change, basal lysozyme secretion): −0.037
[2]; dose 2.00 uM
  Z.LYZ.NS (standard z score): 0.218
  Dose.FC.LYZ.NS (log 2 fold change, basal lysozyme secretion): 0.025
[2]; dose 10.00 uM
  Z.LYZ.NS (standard z score): 0.130
  Dose.FC.LYZ.NS (log 2 fold change, basal lysozyme secretion): 0.015
[3]; dose 0.08 uM
  Z.CTG (standard z score): −2.303
  Dose.FC.CTG (log 2 fold change, ATP): −0.964
[3]; dose 0.40 uM
  Z.CTG (standard z score): 0.044
  Dose.FC.CTG (log 2 fold change, ATP): 0.018
[3]; dose 2.00 uM
  Z.CTG (standard z score): −0.545
  Dose.FC.CTG (log 2 fold change, ATP): −0.228
[3]; dose 10.00 uM
  Z.CTG (standard z score): −0.247
  Dose.FC.CTG (log 2 fold change, ATP): −0.104

## O=C(O)c1cccc(-c2noc(-c3ccccc3F)n2)c1 [Ataluren (PTC124)]
[1]; [4]
  Dose.FC.LYZ.S: 0.051 log 2 fold change
[1]; [5]
  Dose.FC.LYZ.S: 0.034 log 2 fold change
[1]; [6]
  Dose.FC.LYZ.S: 0.058 log 2 fold change
[1]; [7]
  Dose.FC.LYZ.S: 0.005 log 2 fold change
[2]; [4]
  Dose.FC.LYZ.NS: 0.029 log 2 fold change
[2]; primary screen, dose 0.08 uM
  Z.LYZ.NS: 0.253
[2]; [5]
  Dose.FC.LYZ.NS: 0.042 log 2 fold change
[2]; primary screen, dose 0.40 uM
  Z.LYZ.NS: 0.362
[2]; [6]
  Dose.FC.LYZ.NS: 0.131 log 2 fold change
[2]; primary screen, dose 2.00 uM
  Z.LYZ.NS: 1.140
[2]; [7]
  Dose.FC.LYZ.NS: 0.009 log 2 fold change
[2]; primary screen, dose 10.00 uM
  Z.LYZ.NS: 0.077
[3]; [4]
  Dose.FC.CTG: 0.267 log 2 fold change
[3]; primary screen, dose 0.08 uM
  Z.CTG: 0.639
[3]; [5]
  Dose.FC.CTG: −0.340 log 2 fold change
[3]; primary screen, dose 0.40 uM
  Z.CTG: −0.813
[3]; [6]
  Dose.FC.CTG: −0.042 log 2 fold change
[3]; primary screen, dose 2.00 uM
  Z.CTG: −0.100
[3]; [7]
  Dose.FC.CTG: 0.006 log 2 fold change
[3]; primary screen, dose 10.00 uM
  Z.CTG: 0.013

## C[C@@H]1C(=O)O[C@H]2C[C@@]34[C@H]5C[C@@H](C(C)(C)C)[C@]36[C@@H](OC(=O)[C@@H]6O)O[C@@]4(C(=O)O5)[C@]21O [Ginkgolide A]
[1]; Dose 0.08 uM, ENR+CD, 6 days
  Dose.FC.LYZ.S: 0.124 log 2 fold change
[1]; Dose 0.40 uM, ENR+CD, 6 days
  Dose.FC.LYZ.S: 0.161 log 2 fold change
[1]; Dose 2.00 uM, ENR+CD, 6 days
  Dose.FC.LYZ.S: 0.002 log 2 fold change
[1]; Dose 10.00 uM, ENR+CD, 6 days
  Dose.FC.LYZ.S: −0.028 log 2 fold change
[2]; Dose 0.08 uM, ENR+CD, 6 days
  Dose.FC.LYZ.NS: 0.045 log 2 fold change
[2]; Dose 0.08 uM
  Z.LYZ.NS: 0.395
[2]; Dose 0.40 uM, ENR+CD, 6 days
  Dose.FC.LYZ.NS: 0.025 log 2 fold change
[2]; Dose 0.40 uM
  Z.LYZ.NS: 0.222
[2]; Dose 2.00 uM, ENR+CD, 6 days
  Dose.FC.LYZ.NS: 0.030 log 2 fold change
[2]; Dose 2.00 uM
  Z.LYZ.NS: 0.258
[2]; Dose 10.00 uM, ENR+CD, 6 days
  Dose.FC.LYZ.NS: 0.052 log 2 fold change
[2]; Dose 10.00 uM
  Z.LYZ.NS: 0.450
[3]; Dose 0.08 uM, ENR+CD, 6 days
  Dose.FC.CTG: 0.005 log 2 fold change
[3]; Dose 0.08 uM
  Z.CTG: 0.011
[3]; Dose 0.40 uM, ENR+CD, 6 days
  Dose.FC.CTG: −0.017 log 2 fold change
[3]; Dose 0.40 uM
  Z.CTG: −0.040
[3]; Dose 2.00 uM, ENR+CD, 6 days
  Dose.FC.CTG: 0.040 log 2 fold change
[3]; Dose 2.00 uM
  Z.CTG: 0.095
[3]; Dose 10.00 uM, ENR+CD, 6 days
  Dose.FC.CTG: −0.012 log 2 fold change
[3]; Dose 10.00 uM
  Z.CTG: −0.028

From patent US20230398130A1, “METHODS AND COMPOSITIONS FOR DIFFERENTIATING STEM CELLS” (Massachusetts Institute of Technology, priority 2020, published 2023)
